Measured values as given in PubChem BioAssay (NCI).
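All cell lines were grown in 96-well plates and treated with compound for 48 hours. TGI marks complete inhibition of growth.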

Tests used:
Assay in all cases: growth of human tumour cells (NCI), 48 h
[1] = tested on: HS 578T breast
[2] = tested on: EKVX NSCLC
[3] = tested on: SF-268 CNS
[4] = tested on: MALME-3M melanoma
[5] = tested on: T-47D breast
[6] = tested on: LOX IMVI melanoma
[7] = tested on: DU-145 prostate
[8] = tested on: SK-MEL-2 melanoma
[9] = tested on: RPMI-8226 leukemia
[10] = tested on: HL-60(TB) leukemia
[11] = tested on: CCRF-CEM leukemia
[12] = tested on: HCT-15 colon
[13] = tested on: A549 NSCLC
[14] = tested on: MDA-N
[15] = tested on: BT-549 breast
[16] = tested on: SK-OV-3 ovarian
[17] = tested on: NCI-H460 lung
[18] = tested on: SW-620 colon
[19] = tested on: MCF7 breast
[20] = tested on: OVCAR-4 ovarian
[21] = tested on: MDA-MB-435
[22] = tested on: NCI-H522 lung
[23] = tested on: SK-MEL-5 melanoma
[24] = tested on: COLO 205 colon
[25] = tested on: SNB-19 CNS
[26] = tested on: M14 melanoma
[27] = tested on: UACC-257 melanoma
[28] = tested on: K-562 leukemia
[29] = tested on: SN12C renal
[30] = tested on: OVCAR-3 ovarian
[31] = tested on: MDA-MB-231 breast
[32] = tested on: HOP-62 NSCLC
[33] = tested on: PC-3 prostate
[34] = tested on: U251 CNS
[35] = tested on: NCI/ADR-RES ovarian
[36] = tested on: OVCAR-8 ovarian
[37] = tested on: HCC-2998 colon
[38] = tested on: NCI-H23 lung
[39] = tested on: ACHN renal
[40] = tested on: RXF 393 renal
[41] = tested on: MOLT-4 leukemia
[42] = tested on: HOP-92 NSCLC
[43] = tested on: OVCAR-5 ovarian
[44] = tested on: SK-MEL-28 melanoma
[45] = tested on: TK-10 renal
[46] = tested on: HT29 colon
[47] = tested on: CAKI-1 renal
[48] = tested on: KM12 colon
[49] = tested on: SF-295 CNS
[50] = tested on: IGROV1 ovarian
[51] = tested on: SNB-75 CNS
[52] = tested on: A498 renal
[53] = tested on: HCT-116 colon
[54] = tested on: 786-0 renal
[55] = tested on: UACC-62 melanoma
[56] = tested on: UO-31 renal
[57] = tested on: SF-539 CNS
[58] = tested on: NCI-H226 lung

O=C1/C(=C/c2ccc(Cl)cc2)N=C(c2ccccc2)N1c1nc2ccc(Sc3ccccc3)cc2[nH]1
TGI [1]: 91.4 µM
TGI [2]: > 100 µM
TGI [3]: > 100 µM
TGI [4]: 58.9 µM
TGI [5]: > 100 µM
TGI [6]: 61.9 µM
TGI [7]: > 100 µM
TGI [8]: 31.6 µM
TGI [9]: 55.7 µM
TGI [10]: 35.6 µM
TGI [11]: 87 µM
TGI [12]: > 100 µM
TGI [13]: > 100 µM
TGI [14]: 27.7 µM
TGI [15]: 57.7 µM
TGI [16]: > 100 µM
TGI [17]: 61.8 µM
TGI [18]: 80.8 µM
TGI [19]: 63.5 µM
TGI [20]: > 100 µM
TGI [21]: 27.1 µM
TGI [22]: 54.3 µM
TGI [23]: 29.2 µM
TGI [24]: 33.8 µM
TGI [25]: > 100 µM
TGI [26]: 35.1 µM
TGI [27]: 55.8 µM
TGI [28]: 61.8 µM
TGI [29]: > 100 µM
TGI [30]: > 100 µM
TGI [31]: 90.1 µM
TGI [32]: > 100 µM
TGI [33]: > 100 µM
TGI [34]: 84.7 µM
TGI [35]: 75.5 µM
TGI [36]: > 100 µM
TGI [37]: 31.4 µM
TGI [38]: > 100 µM
TGI [39]: > 100 µM
TGI [40]: > 100 µM
TGI [41]: 87.6 µM
TGI [42]: > 100 µM
TGI [43]: > 100 µM
TGI [44]: 72.7 µM
TGI [45]: 59.6 µM
TGI [46]: 40 µM
TGI [47]: > 100 µM
TGI [48]: 81.2 µM
TGI [49]: 87.1 µM
TGI [50]: > 100 µM
TGI [51]: 60.2 µM
TGI [52]: 72.3 µM
TGI [53]: 62.3 µM
TGI [54]: 64.6 µM
TGI [55]: 29.8 µM
TGI [56]: > 100 µM

N#Cc1c(=N)cc2c3ccccc3oc3c(C#N)c(N)[nH]c1c32
TGI [1]: > 100 µM
TGI [2]: > 100 µM
TGI [3]: > 100 µM
TGI [4]: > 100 µM
TGI [5]: > 100 µM
TGI [6]: > 100 µM
TGI [7]: > 100 µM
TGI [8]: > 100 µM
TGI [9]: > 100 µM
TGI [10]: > 100 µM
TGI [11]: > 100 µM
TGI [12]: > 100 µM
TGI [13]: > 100 µM
TGI [14]: > 100 µM
TGI [15]: > 100 µM
TGI [16]: > 100 µM
TGI [17]: > 100 µM
TGI [57]: > 100 µM
TGI [18]: > 100 µM
TGI [19]: > 100 µM
TGI [20]: > 100 µM
TGI [21]: > 100 µM
TGI [23]: > 100 µM
TGI [24]: > 100 µM
TGI [25]: > 100 µM
TGI [26]: > 100 µM
TGI [27]: > 100 µM
TGI [28]: > 100 µM
TGI [29]: > 100 µM
TGI [30]: > 100 µM
TGI [31]: > 100 µM
TGI [32]: > 100 µM
TGI [33]: > 100 µM
TGI [34]: > 100 µM
TGI [35]: > 100 µM
TGI [36]: > 100 µM
TGI [37]: > 100 µM
TGI [38]: > 100 µM
TGI [39]: > 100 µM
TGI [58]: > 100 µM
TGI [40]: > 100 µM
TGI [41]: > 100 µM
TGI [42]: > 100 µM
TGI [43]: > 100 µM
TGI [44]: > 100 µM
TGI [45]: > 100 µM
TGI [46]: > 100 µM
TGI [47]: > 100 µM
TGI [48]: > 100 µM
TGI [49]: > 100 µM
TGI [50]: > 100 µM
TGI [51]: > 100 µM
TGI [52]: > 100 µM
TGI [53]: > 100 µM
TGI [54]: > 100 µM
TGI [55]: > 100 µM
TGI [56]: > 100 µM

CCN(CC)CCn1ncc2c(N)ncnc21
TGI [1]: > 100 µM
TGI [2]: > 100 µM
TGI [3]: > 100 µM
TGI [4]: > 100 µM
TGI [5]: > 100 µM
TGI [6]: > 100 µM
TGI [7]: > 100 µM
TGI [8]: > 100 µM
TGI [9]: > 100 µM
TGI [11]: > 100 µM
TGI [12]: > 100 µM
TGI [13]: > 100 µM
TGI [14]: > 100 µM
TGI [15]: > 100 µM
TGI [16]: > 100 µM
TGI [17]: > 100 µM
TGI [18]: > 100 µM
TGI [19]: > 100 µM
TGI [20]: > 100 µM
TGI [21]: > 100 µM
TGI [22]: > 100 µM
TGI [23]: > 100 µM
TGI [24]: > 100 µM
TGI [25]: > 100 µM
TGI [26]: > 100 µM
TGI [28]: > 100 µM
TGI [29]: > 100 µM
TGI [30]: > 100 µM
TGI [31]: > 100 µM
TGI [32]: > 100 µM
TGI [33]: > 100 µM
TGI [34]: > 100 µM
TGI [35]: > 100 µM
TGI [36]: > 100 µM
TGI [37]: > 100 µM
TGI [38]: > 100 µM
TGI [39]: > 100 µM
TGI [58]: > 100 µM
TGI [40]: > 100 µM
TGI [41]: > 100 µM
TGI [42]: > 100 µM
TGI [43]: > 100 µM
TGI [44]: > 100 µM
TGI [45]: > 100 µM
TGI [46]: > 100 µM
TGI [47]: > 100 µM
TGI [48]: > 100 µM
TGI [49]: > 100 µM
TGI [50]: > 100 µM
TGI [52]: > 100 µM
TGI [53]: > 100 µM
TGI [54]: > 100 µM
TGI [55]: > 100 µM
TGI [56]: > 100 µM
